ChEMBL document CHEMBL1137777, “Design, synthesis, and evaluation of indolinones as triple angiokinase inhibitors and the discovery of a highly specific 6-methoxycarbonyl-substituted indolinone (BIBF 1120)” (J Med Chem, 2009)

Experiments:
HUVEC = assay: cells; settings: Homo sapiens, 3 h
Description: Antiangiogenic activity in HUVEC assessed as inhibition of VEGF-induced cell proliferation by [3H]thymidine incorporation assay

[1] = Half life in NMRI nu/nu mouse at 50 mg/kg, po administered as single dose; assay type: ADME, organism-based; design: dose 50 mg/kg, route oral; settings: in vivo
[2] = target: Serine/threonine-protein kinase PLK1 (Homo sapiens, UniProt P53350); assay: Inhibition of human Plk1
Serine/threonine-protein kinase PLK1, sequence (P53350 whole entry): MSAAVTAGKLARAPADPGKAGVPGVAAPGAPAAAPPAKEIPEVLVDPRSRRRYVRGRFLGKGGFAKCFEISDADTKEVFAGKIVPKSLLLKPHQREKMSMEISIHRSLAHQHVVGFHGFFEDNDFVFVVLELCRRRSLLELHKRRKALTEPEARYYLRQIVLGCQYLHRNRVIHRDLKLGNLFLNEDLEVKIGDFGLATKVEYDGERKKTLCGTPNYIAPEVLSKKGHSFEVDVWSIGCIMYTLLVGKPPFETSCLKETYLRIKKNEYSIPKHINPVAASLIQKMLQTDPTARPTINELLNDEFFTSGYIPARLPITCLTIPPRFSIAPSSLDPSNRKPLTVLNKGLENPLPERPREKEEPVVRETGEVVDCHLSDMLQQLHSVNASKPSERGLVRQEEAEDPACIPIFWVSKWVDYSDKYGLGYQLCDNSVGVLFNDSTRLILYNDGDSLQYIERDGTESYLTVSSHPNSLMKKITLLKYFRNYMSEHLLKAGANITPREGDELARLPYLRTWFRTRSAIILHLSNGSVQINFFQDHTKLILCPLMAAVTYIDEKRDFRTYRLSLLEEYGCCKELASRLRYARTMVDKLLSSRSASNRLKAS

[3] = Antitumor activity against human PAC120 cells xenografted NMRI nu/nu mouse assessed as inhibition of mean tumor volume growth at 100 mg/kg, po qd after 21 days relative to control; assay type: functional
FaDu [4] = assay: Antitumor activity against human FADU cells xenografted NMRI nu/nu mouse assessed as inhibition of mean tumor volume growth at 10 mg/kg, po qd after 21 days relative to control; assay type: functional
[5] = Plasma concentration in NMRI nu/nu mouse at 50 mg/kg, po administered as single dose after 24 hrs; assay type: ADME, organism-based; design: dose 50 mg/kg, route oral
[6] = Volume of distribution in NMRI nu/nu mouse at 50 mg/kg, po or 10 mg/kg, iv administered as single dose; assay type: ADME, organism-based; settings: in vivo
[7] = Cmax in NMRI nu/nu mouse at 50 mg/kg, po administered as single dose; assay type: ADME, organism-based; design: dose 50 mg/kg, route oral; settings: in vivo
FaDu [8] = assay: Antitumor activity against human FADU cells xenografted NMRI nu/nu mouse assessed as inhibition of mean tumor volume growth at 100 mg/kg, po qd after 21 days relative to control; assay type: functional
Calu-6 [9] = assay: Antiangiogenic activity against human Calu6 cells assessed as inhibition of cell proliferation by [3H]thymidine incorporation assay; assay type: functional, cell-based
FaDu [10] = assay: Antitumor activity against human FADU cells xenografted NMRI nu/nu mouse assessed as inhibition of mean tumor volume growth at 50 mg/kg, po qd after 21 days relative to control; assay type: functional
[11] = Clearance in NMRI nu/nu mouse at 50 mg/kg, po or 10 mg/kg, iv administered as single dose; assay type: ADME, organism-based; settings: in vivo
Calu-6 [12] = assay: Antitumor activity against human Calu6 cells xenografted NMRI nu/nu mouse assessed as inhibition of mean tumor volume growth at 50 mg/kg, po qd after 21 days relative to control; assay type: functional
[13] = Plasma concentration in NMRI nu/nu mouse at 50 mg/kg, po administered as single dose after 2 hrs; assay type: ADME, organism-based; design: dose 50 mg/kg, route oral
HT-29 = assay: Antitumor activity against human HT-29 cells xenografted NMRI nu/nu mouse assessed as inhibition of mean tumor volume growth at 100 mg/kg, po qd after 21 days relative to control; assay type: functional
[14] = Oral bioavailability in NMRI nu/nu mouse at 50 mg/kg administered as single dose; assay type: ADME, organism-based; settings: in vivo
CAKI-1 [15] = assay: Antitumor activity against human Caki1 cells xenografted NMRI nu/nu mouse assessed as inhibition of mean tumor volume growth at 50 mg/kg, po qd after 21 days relative to control; assay type: functional
CAKI-1 [16] = assay: Antitumor activity against human Caki1 cells xenografted NMRI nu/nu mouse assessed as inhibition of mean tumor volume growth at 100 mg/kg, po qd after 21 days relative to control; assay type: functional
FaDu [17] = assay: Antitumor activity against human FADU cells xenografted NMRI nu/nu mouse assessed as inhibition of mean tumor volume growth at 25 mg/kg, po qd after 21 days relative to control; assay type: functional
FaDu [18] = assay: Antiangiogenic activity against human FADU cells assessed as inhibition of cell proliferation by [3H]thymidine incorporation assay; assay type: functional, cell-based
Mus musculus = assay: AUC in NMRI nu/nu mouse at 50 mg/kg, po administered as single dose; assay type: ADME, organism-based, Plasma; design: dose 50 mg/kg, route oral; settings: in vivo
HeLa = assay: Antiangiogenic activity against human HeLa cells assessed as inhibition of cell proliferation by [3H]thymidine incorporation assay; assay type: functional, cell-based
SK-OV-3 = assay: Antitumor activity against human SKOV3 cells xenografted NMRI nu/nu mouse assessed as inhibition of mean tumor volume growth at 50 mg/kg, po qd after 21 days relative to control; assay type: functional
CAKI-1 [19] = assay: Antitumor activity against human Caki1 cells xenografted NMRI nu/nu mouse assessed as inhibition of mean tumor volume growth at 10 mg/kg, po qd after 21 days relative to control; assay type: functional
FaDu [20] = assay: Antitumor activity against human FADU cells xenografted NMRI nu/nu mouse assessed as inhibition of mean tumor volume growth at 50 mg/kg, po bid after 21 days relative to control; assay type: functional

Compound: COC(=O)c1ccc2c(c1)NC(=O)/C2=C(\Nc1ccc(N(C)C(=O)CN2CCN(C)CC2)cc1)c1ccccc1 [NINTEDANIB]
- IC50 (HUVEC): 0.01 µM
- half-life [1]: 5 h
- IC50 [2]: > 10 µM
- T/C [3]: 34%
- T/C (FaDu [4]): 82%
- concentration at 24 h [5]: 8 nM
- Vd [6]: 32 L/kg
- Cmax [7]: 1090 nM
- T/C (FaDu [8]): 11%
- EC50 (Calu-6 [9]): > 1 µM
- T/C (FaDu [10]): 14%
- clearance [11]: 173 mL/min/kg
- T/C (Calu-6 [12]): 24%
- concentration at 2 h [13]: 923 nM
- T/C (HT-29): 16%
- bioavailability [14]: 45%
- T/C (CAKI-1 [15]): 25%
- T/C (CAKI-1 [16]): 16%
- T/C (FaDu [17]): 46%
- EC50 (FaDu [18]): > 1 µM
- AUC (Mus musculus): 2.75 µM·h
- EC50 (HeLa): > 1 µM
- T/C (SK-OV-3): 19%
- T/C (CAKI-1 [19]): 71%
- T/C (FaDu [20]): 15%
